The values that follow come from patent US20160235068A1, “CONTROLLED RELEASE PARTICLES, PRODUCTION METHOD THEREOF, MOLDING MATERIAL, AND MOLDED ARTICLE” (priority 2013, published 2016).

≈ marks a conversion by molar mass, not a printed value.

Data set [1] in a line: Alkali-resistance test (Test A), suspending agent of controlled release particles. Format: physicochemical. Particulars: 168 h, 0.05 %. How it is done:
1 mL of the diluted suspending agent was weighed in a glass bottle, and 4 mL of a saturated calcium hydroxide solution was added thereto, thereby preparing a test solution. The test solution was allowed to stand in a constant temperature of 40° C.
After 7 days from allowing the test solution to stand, 5 mL of acetonitrile was added to the test solution, the antibiotic compound was extracted, the amount of the antibiotic compound was determined with HPLC, and the remaining ratio of the antibiotic compound was calculated.

For data set [2] the following is noted: cited from earlier work.

As for `O=[N+]([O-])NC1=NCCN1Cc1ccc(Cl)nc1` [Imidacloprid, 1-(6-chloro-3-pyridylmethyl)-N-nitroimidazolidin-2-ylideneamine], the “Alkali-resistance (Test A) Remaining ratio (%) of antibiotic compound” value in data set [1] was 0%.

On to `CN/C(=N\[N+](=O)[O-])NCc1cnc(Cl)s1` [Clothianidin, (E)-1-(2-chlorothiazole-5-ylmethyl)-3-methyl-2-nitroguanidine], for which the solubility to water in data set [2] is 330 µg/mL (≈ 1320 µM).
